Test results from the supplement of paper PMC10307832.

Legend:
Assay in all cases: relative viability (nuclei count vs DMSO), 5 days (fraction); higher = more cells survive
[1] = test system: NCI-H838
How it was run: (§1)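 Lung cancer cell lines were seeded in 1536-well plates and dosed by pin tool the next day, with either a single drug or a fixed anchor-drug dose combined with five library-drug doses (not always all listed) spaced in √10 steps. Five days later, one step fixed the cells and stained their nuclei (final 0.05% Triton X-100, 1% formaldehyde, 1 ug/ml Hoechst), and nuclei were counted on 4× images. Relative viability is the nuclei count in treated wells divided by the count in vehicle wells, and each value is the median of duplicate plates.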

[2] = test system: NCI-H1944
How it was run: as §1

[3] = test system: COR-L23
How it was run: as §1

[4] = test system: HCC-366
How it was run: as §1

[5] = test system: HCC-15
How it was run: as §1

[6] = test system: NCI-H1993
How it was run: as §1

[7] = test system: NCI-H2405
How it was run: as §1

[8] = test system: HCC-78
How it was run: as §1

[9] = test system: NCI-H2126
How it was run: as §1

[10] = test system: EMC-BAC-2
How it was run: as §1

[11] = test system: LC-2-ad
How it was run: as §1

[12] = test system: ABC-1
How it was run: as §1

[13] = test system: NCI-H23
How it was run: as §1

[14] = test system: NCI-H2023
How it was run: as §1

[15] = test system: SK-LU-1
How it was run: as §1

[16] = test system: NCI-H358
How it was run: as §1

[17] = test system: NCI-H2228
How it was run: as §1

[18] = test system: ChaGo-K-1
How it was run: as §1

[19] = test system: HOP-62
How it was run: as §1

[20] = test system: HARA
How it was run: as §1

SMILES: Cc1sc2c(c1C)C(c1ccc(Cl)cc1)=N[C@@H](CC(=O)OC(C)(C)C)c1nnc(C)n1-2 [JQ1] + C[C@@H](Oc1cc(-c2cnn(C3CCNCC3)c2)cnc1N)c1c(Cl)ccc(F)c1Cl [Crizotinib] (partner 1 µM)
- relative viability ([1]; first compound 0.04 µM): 0.814
- relative viability ([1]; first compound 0.1265 µM): 0.546
- relative viability ([1]; first compound 0.4 µM): 0.415
- relative viability ([1]; first compound 1.265 µM): 0.27
- relative viability ([1]; first compound 4 µM): 0.172
- relative viability ([2]; first compound 0.04 µM): 1.02
- relative viability ([2]; first compound 0.1265 µM): 0.905
- relative viability ([2]; first compound 0.4 µM): 0.719
- relative viability ([2]; first compound 1.265 µM): 0.574
- relative viability ([2]; first compound 4 µM): 0.447
- relative viability ([3]; first compound 0.04 µM): 0.608
- relative viability ([3]; first compound 0.1265 µM): 0.381
- relative viability ([3]; first compound 0.4 µM): 0.46
- relative viability ([3]; first compound 1.265 µM): 0.248
- relative viability ([3]; first compound 4 µM): 0.12
- relative viability ([4]; first compound 0.04 µM): 0.457
- relative viability ([4]; first compound 0.4 µM): 0.41
- relative viability ([4]; first compound 1.265 µM): 0.243
- relative viability ([4]; first compound 4 µM): 0.103
- relative viability ([5]; first compound 0.04 µM): 0.762
- relative viability ([5]; first compound 0.4 µM): 0.75
- relative viability ([5]; first compound 1.265 µM): 0.544
- relative viability ([5]; first compound 4 µM): 0.441
- relative viability ([6]; first compound 0.04 µM): 0.834
- relative viability ([6]; first compound 0.1265 µM): 0.774
- relative viability ([6]; first compound 0.4 µM): 0.728
- relative viability ([6]; first compound 1.265 µM): 0.799
- relative viability ([6]; first compound 4 µM): 0.698
- relative viability ([7]; first compound 0.04 µM): 0.829
- relative viability ([7]; first compound 0.1265 µM): 0.711
- relative viability ([7]; first compound 0.4 µM): 0.749
- relative viability ([7]; first compound 1.265 µM): 0.555
- relative viability ([7]; first compound 4 µM): 0.395
- relative viability ([8]; first compound 0.04 µM): 0.314
- relative viability ([8]; first compound 0.1265 µM): 0.33
- relative viability ([8]; first compound 0.4 µM): 0.348
- relative viability ([8]; first compound 1.265 µM): 0.275
- relative viability ([8]; first compound 4 µM): 0.251
- relative viability ([9]; first compound 0.04 µM): 1.04
- relative viability ([9]; first compound 0.1265 µM): 0.987
- relative viability ([9]; first compound 0.4 µM): 0.901
- relative viability ([9]; first compound 1.265 µM): 0.966
- relative viability ([9]; first compound 4 µM): 0.754
- relative viability ([10]; first compound 0.04 µM): 0.737
- relative viability ([10]; first compound 0.1265 µM): 0.651
- relative viability ([10]; first compound 0.4 µM): 0.504
- relative viability ([10]; first compound 1.265 µM): 0.43
- relative viability ([10]; first compound 4 µM): 0.315
- relative viability ([11]; first compound 0.04 µM): 0.44
- relative viability ([11]; first compound 0.1265 µM): 0.348
- relative viability ([11]; first compound 0.4 µM): 0.308
- relative viability ([11]; first compound 1.265 µM): 0.277
- relative viability ([11]; first compound 4 µM): 0.258
- relative viability ([12]; first compound 0.04 µM): 0.844
- relative viability ([12]; first compound 0.1265 µM): 1.09
- relative viability ([12]; first compound 0.4 µM): 0.988
- relative viability ([12]; first compound 1.265 µM): 0.569
- relative viability ([12]; first compound 4 µM): 0.276
- relative viability ([13]; first compound 0.04 µM): 0.441
- relative viability ([13]; first compound 0.1265 µM): 0.61
- relative viability ([13]; first compound 0.4 µM): 0.304
- relative viability ([13]; first compound 1.265 µM): 0.163
- relative viability ([13]; first compound 4 µM): 0.154
- relative viability ([14]; first compound 0.04 µM): 0.544
- relative viability ([14]; first compound 0.1265 µM): 0.543
- relative viability ([14]; first compound 0.4 µM): 0.485
- relative viability ([14]; first compound 1.265 µM): 0.227
- relative viability ([14]; first compound 4 µM): 0.158
- relative viability ([15]; first compound 0.04 µM): 0.96
- relative viability ([15]; first compound 0.1265 µM): 0.615
- relative viability ([15]; first compound 0.4 µM): 0.481
- relative viability ([15]; first compound 1.265 µM): 0.193
- relative viability ([15]; first compound 4 µM): 0.148
- relative viability ([16]; first compound 0.04 µM): 0.498
- relative viability ([16]; first compound 0.1265 µM): 0.43
- relative viability ([16]; first compound 0.4 µM): 0.473
- relative viability ([16]; first compound 1.265 µM): 0.228
- relative viability ([16]; first compound 4 µM): 0.25
- relative viability ([17]; first compound 0.04 µM): 0.455
- relative viability ([17]; first compound 0.1265 µM): 0.417
- relative viability ([17]; first compound 0.4 µM): 0.38
- relative viability ([17]; first compound 1.265 µM): 0.306
- relative viability ([17]; first compound 4 µM): 0.317
- relative viability ([18]; first compound 0.04 µM): 1.04
- relative viability ([18]; first compound 0.4 µM): 0.689
- relative viability ([18]; first compound 1.265 µM): 0.513
- relative viability ([18]; first compound 4 µM): 0.387
- relative viability ([19]; first compound 0.04 µM): 0.714
- relative viability ([19]; first compound 0.1265 µM): 0.711
- relative viability ([19]; first compound 0.4 µM): 0.299
- relative viability ([19]; first compound 1.265 µM): 0.119
- relative viability ([19]; first compound 4 µM): 0.11
- relative viability ([20]; first compound 0.04 µM): 0.945
- relative viability ([20]; first compound 0.1265 µM): 0.714
- relative viability ([20]; first compound 0.4 µM): 0.337
- relative viability ([20]; first compound 1.265 µM): 0.366
- relative viability ([20]; first compound 4 µM): 0.308
